Patent publication US4015974A, “Amido phosphorothiolates” (priority 1972, dated 1977)
≈ marks a conversion by molar mass, not a printed value. Read-outs that look alike come from different tables or passages of the source.

Tests used:
Assay type in all cases: in vivo
[1] = system: large crabgrass (Digitaria sanguinalis); test: Pre-emergence application, herbicidal effect on large crabgrass (Table 1); design: key: 0: not damaged; 5: completely killed; conditions: 20 days after application, score 0-5
Outline: (§1)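 Steps: sow seeds individually in pots about 10 cm across; cover with soil; apply test compound as water-diluted wettable powder to the soil; grow in greenhouse; rate herbicidal effect at day 20 on a 0–5 scale (5 = completely killed).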

[2] = system: barnyard grass (Echinochloa crus-galli); test: Water application, herbicidal effect on barnyard grass (Table 2); design: key: 0: not damaged; 5: completely killed; conditions: 25 days, score 0-5
Outline: (§2)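 Flooded paddy soil, 3-leaf rice transplants, sown barnyard grass, spontaneous broadleaf weeds; WP formulation, water-lodged soil application; 0–5 visual rating, day 25.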

[3] = system: common purslane (Portulaca oleracea); test: Pre-emergence application, herbicidal effect on common purslane (Table 1); design: key: 0: not damaged; 5: completely killed; conditions: 20 days after application, score 0-5
Outline: as §1

[4] = system: barnyard grass (Echinochloa crus-galli); test: Pre-emergence application, herbicidal effect on barnyard grass (Table 1); design: key: 0: not damaged; 5: completely killed; conditions: 20 days after application, score 0-5
Outline: as §1

[5] = system: carmine mite (Tetranychus telavius); test: Lethal effect on carmine mite, leaf dipping (Table 3); conditions: foliar
Experimental: A large number of carmine mite adult were made parasitic on leaves of potted kidney beans at a 2-leaves stage which had elapsed 10 days after sowing. The leaves of kidney bean on which carmine mites had been made parasitic were dipped for 1 minute in each aqueous solution of the present compounds of wettable powder type. Water was given to the leaves not to kill them, and after 48 hours the death and alive were observed microscopically to calculate the mortality. Values of LC50 were obtained from the mortality.

nematode = test: Effect on nematode (Table 7); design: tested at 500 ppm; conditions: 500 p.p.m., 24 hours
Experimental: 0.5 ml. of a nematode-containing aqueous solution separated from food according to Baermann's method was placed in a test tube with ground stopper containing 0.5 ml. of an aqueous dilute solution of each emulsifiable concentrates of the present compounds. The concentration of the active ingredient in the mixture was adjusted to 500 p.p.m. After 24 hours, the death and alive were observed microscopically to calculate the mortality.

[6] = system: broad-leaved weeds, e.g., monochoria, false pimpernel and toothcup; test: Water application, herbicidal effect on broad-leaved weeds (Table 2); design: key: 0: not damaged; 5: completely killed; conditions: 25 days, score 0-5
Outline: as §2

[7] = system: redroot pigweed (Amaranthus retroflexus); test: Pre-emergence application, herbicidal effect on redroot pigweed (Table 1); design: key: 0: not damaged; 5: completely killed; conditions: 20 days after application, score 0-5
Outline: as §1

[8] = system: common lambsquarter (Chenopodium album); test: Pre-emergence application, herbicidal effect on common lambsquarter (Table 1); design: key: 0: not damaged; 5: completely killed; conditions: 20 days after application, score 0-5
Outline: as §1

radish = test: Pre-emergence application, herbicidal effect on radish (Table 1); design: key: 0: not damaged; 5: completely killed; conditions: 20 days after application, score 0-5
Outline: as §1

rice = test: Water application, phytotoxicity on rice (Table 2); design: key: 0: no effect; 1: very slightly affected; 2: slightly affected; 3: moderately affected; 4: considerably affected; 5: completely killed; conditions: 25 days, score 0-5
Outline: as §2

[9] = system: broad-leaved weeds, e.g., monochoria, false pimpernel and toothcup; test: Water application, herbicidal effect on broad-leaved weeds (Table 2); design: key: 0: no effect; 1: very slightly affected; 2: slightly affected; 3: moderately affected; 4: considerably affected; 5: completely killed; conditions: 10 g/a, 25 days, score 0-5
Source text: Wagner pots of 14 cm. in diameter, which had been packed with 1.5 kg. of paddy field soil, were brought into the state of paddy fields. To the pots were transplanted rice seedlings at the 3-leave stage. Further, seeds of barnyard grass (Echinochloa crus-galli) were sowed in the pots and required amounts of test compounds were applied to the soil under water lodged condition. 25 days after application, the degrees of herbicidal activity and phytotoxity were investigated on above-mentioned plants which had been transplanted and sowed, and on broad-leaved weeds, e.g., monochoria (Monochoria viaginalis Presl.), false pimpernel (Linderna pyxidaria) and toothcup (Rotala indica Koehue), which had been spontaneously germinated. The test compounds were used in the form of wettable powder. The herbicidal effects and the phytotoxity were evaluated as follows by the numerals ranging from 0 to 5.

SMILES | Herbicidal effect, large crabgrass ([1]; 10 g./a.) | Herbicidal effect, large crabgrass ([1]; 20 g./a.) | Herbicidal effect, large crabgrass ([1]; 40 g./a.) | Herbicidal effects, barnyard grass ([2]; 10 g/a) | Herbicidal effects, barnyard grass ([2]; 20 g/a) | Herbicidal effects, barnyard grass ([2]; 40 g/a) | Herbicidal effect, common purslane ([3]; 10 g./a.) | Herbicidal effect, common purslane ([3]; 20 g./a.) | Herbicidal effect, common purslane ([3]; 40 g./a.) | Herbicidal effect, barnyard grass ([4]; 10 g./a.) | Herbicidal effect, barnyard grass ([4]; 20 g./a.) | Herbicidal effect, barnyard grass ([4]; 40 g./a.) | Herbicidal effects, broad-leaved weeds ([6]; 20 g/a) | Herbicidal effects, broad-leaved weeds ([6]; 40 g/a) | Herbicidal effect, redroot pigweed ([7]; 10 g./a.) | Herbicidal effect, redroot pigweed ([7]; 20 g./a.) | Herbicidal effect, redroot pigweed ([7]; 40 g./a.) | Herbicidal effect, common lambsquarter ([8]; 10 g./a.) | Herbicidal effect, common lambsquarter ([8]; 20 g./a.) | Herbicidal effect, common lambsquarter ([8]; 40 g./a.) | other results
CCOP(=O)(SCCC(C)C)SCC(=O)N1CCCCC1C (stereo not shown) [Compound 7] | 5 | 5 | 5 | 5 | 5 | 5 | 5 | 5 | 5 | 5 | 5 | 5 | 5 | 5 | 4 | 5 | 5 | 5 | 5 | 5 | LC50 ([5]; 48 h): 18.5 µg/mL (≈ 50.3 µM); Mortality (nematode): 100%; Herbicidal effects, broad-leaved weeds ([6]; 10 g/a): 5; Herbicidal effect, radish (radish; 10 g./a.): 0; Herbicidal effect, radish (radish; 20 g./a.): 0; Herbicidal effect, radish (radish; 40 g./a.): 0; Phytotoxicity on rice (rice; 10 g/a): 0; Phytotoxicity on rice (rice; 20 g/a): 0; Phytotoxicity on rice (rice; 40 g/a): 0
CCOP(=O)(SCC(=O)N1CCCCC1C)SC1CCCCC1 (stereo not shown) [Compound 10] | 4 | 4 | 5 | 5 | 5 | 5 | 3 | 4 | 4 | 4 | 4 | 5 | 5 | 5 | 3 | 4 | 4 | 3 | 4 | 4 | Herbicidal effects, broad-leaved weeds [9]: 4; Mortality (nematode): 100%; Herbicidal effect, radish (radish; 10 g./a.): 0; Herbicidal effect, radish (radish; 20 g./a.): 0; Herbicidal effect, radish (radish; 40 g./a.): 0; Phytotoxicity on rice (rice; 10 g/a): 0; Phytotoxicity on rice (rice; 20 g/a): 0; Phytotoxicity on rice (rice; 40 g/a): 0
CCOP(=O)(SCC(=O)N1CCCCC1C)SCc1ccccc1 (stereo not shown) [Compound 11] | 4 | 5 | 5 | 5 | 5 | 5 | 4 | 4 | 5 | 4 | 5 | 5 | 5 | 5 | 4 | 5 | 5 | 4 | 4 | 5 | LC50 ([5]; 48 h): 50 µg/mL (≈ 129 µM); Mortality (nematode): 100%; Herbicidal effects, broad-leaved weeds ([6]; 10 g/a): 5; Herbicidal effect, radish (radish; 10 g./a.): 0; Herbicidal effect, radish (radish; 20 g./a.): 0; Herbicidal effect, radish (radish; 40 g./a.): 0; Phytotoxicity on rice (rice; 10 g/a): 0; Phytotoxicity on rice (rice; 20 g/a): 0; Phytotoxicity on rice (rice; 40 g/a): 0
CCCCSP(=O)(OCCC)SCC(=O)N1CCCCC1C (stereo not shown) [Compound 17] | 4 | 5 | 5 | 5 | 5 | 5 | 3 | 4 | 4 | 4 | 4 | 5 | 5 | 5 | 3 | 4 | 4 | 4 | 4 | 5 | Herbicidal effects, broad-leaved weeds [9]: 4; Herbicidal effect, radish (radish; 10 g./a.): 0; Herbicidal effect, radish (radish; 20 g./a.): 0; Herbicidal effect, radish (radish; 40 g./a.): 0; Phytotoxicity on rice (rice; 10 g/a): 0; Phytotoxicity on rice (rice; 20 g/a): 0; Phytotoxicity on rice (rice; 40 g/a): 0
CCCOP(=O)(SCCc1ccccc1)SCC(=O)N1CCCCC1CC (stereo not shown) [Compound 19] | 4 | 4 | 5 | 5 | 5 | 5 | 4 | 4 | 4 | 4 | 4 | 5 | 5 | 5 | 4 | 4 | 4 | 3 | 4 | 4 | Herbicidal effects, broad-leaved weeds [9]: 4; Herbicidal effect, radish (radish; 10 g./a.): 0; Herbicidal effect, radish (radish; 20 g./a.): 0; Herbicidal effect, radish (radish; 40 g./a.): 0; Phytotoxicity on rice (rice; 10 g/a): 0; Phytotoxicity on rice (rice; 20 g/a): 0; Phytotoxicity on rice (rice; 40 g/a): 0
CCCSP(=O)(OC)SCC(=O)N1CCCCC1C (stereo not shown) [Compound 30] | – | – | – | – | – | – | – | – | – | – | – | – | – | – | – | – | – | – | – | – | LC50 ([5]; 48 h): 22.8 µg/mL (≈ 70.1 µM)
CCCOP(=O)(SCC(=O)N1CCCCC1C)SC(C)C (stereo not shown) [Compound 36] | 4 | 4 | 5 | 5 | 5 | 5 | 3 | 4 | 4 | 4 | 4 | 5 | 5 | 5 | 3 | 4 | 4 | 4 | 4 | 5 | Herbicidal effects, broad-leaved weeds [9]: 4; Herbicidal effect, radish (radish; 10 g./a.): 0; Herbicidal effect, radish (radish; 20 g./a.): 0; Herbicidal effect, radish (radish; 40 g./a.): 0; Phytotoxicity on rice (rice; 10 g/a): 0; Phytotoxicity on rice (rice; 20 g/a): 0; Phytotoxicity on rice (rice; 40 g/a): 0
CC(COc1ccc(C(C)(C)C)cc1)OCC(C)OS(=O)OCCl (stereo not shown) [Smite, reference compound] | – | – | – | – | – | – | – | – | – | – | – | – | – | – | – | – | – | – | – | – | LC50 ([5]; leaves dipped 1 minute, wettable powder, 48 hours, read-out: LC50): 102 µg/mL (≈ 269 µM)
